Experimental data published in publication PMC7181827, “A Highly Glucose Tolerant ß-Glucosidase from Malbranchea pulchella (MpBg3) Enables Cellulose Saccharification” (Scientific Reports, 2020).

Tested on: T1, MpBgl3
T1 construct: native secreted enzyme purified from culture filtrate (cellobiose-grown), N-glycosylated
Assay: p-nitrophenol release, absorbance at […] nm; SigrafW fit
Type: biochemical, Malbranchea pulchella
Details: McIlvaine buffer pH 6.0, 50 °C

Km: 330 µM
Structure (SMILES): O=[N+]([O-])c1ccc(O[C@@H]2O[C@H](CO)[C@@H](O)[C@H](O)[C@H]2O)cc1 [pNPG]
